From PMC11468294, “Peptide Amphiphiles as Biodegradable Adjuvants for Efficient Retroviral Gene Delivery” (Advanced Healthcare Materials, 2023)
Entries after “also recorded” stand apart in the source; their conditions may differ. Where a SMILES comes first, the peptide text is derived from it. The star is where a group is joined. X1 = CC/C=C\C/C=C\C/C=C\CCCCCCCC(=O)*; Palmitoyl = CCCCCCCCCCCCCCCC(=O)*

What was measured:
[1] = Microscopic aggregation (fluorescence / confocal microscopy, derived count rate); format: physicochemical; details: fibrils preformed at 1 mg mL-1 in PBS; ThT or Proteostat stain, widefield or confocal microscopy; derived count rate > 1000 kcps as criterion
Experimental: (§1) Transmission electron microscopy (TEM) measurements, Thioflavin (ThT), zeta‐potential measurements for fibril characterization, ATR‐IR spectra acquisition and the calculation of β−sheet were prepared and conducted analogous to a previous report.^[ [20], [86] ^] […] Fibrils were defined as distinct, if no visible structures could be identified in fluorescence and brightfield microscopy. […] The derived count rate of the zeta‐potential measurement was used as information on the light scattering intensity and turbidity of the sample as a further indicator for microscopic aggregation.^[ [90] ^]
Fluorescence microscopy: 1 µL Fibrils (1 mg mL^−1) were stained with 9 µL, 50 µM ThT. 10 µL of the stained fibrils (0.1 mg mL^−1) were placed on a microscopy glass. Fluorescence microscopy measurements were performed on a Leica DMi8 microscope with 10x air objective and equipped with a Leica MC170 HD camera with a filter setting λem = 527/30 nm upon excitation at λex = 480/40 nm) and processed with the Leica LASX software.
7 Effects of PA modifications on properties and activity
To investigate the effects of modification in the PA sequence, we created various peptide amphiphiles derived from PA1 by varying the (I) hydrophobic moiety, (II) the linkage chemistry and (III) the peptide sequence (Figure S12, SI chapter 7.1 – 7.3). The color code for sequence representation is yellow for the hydrophobic moiety, blue for cationic amino acids, red for non-polar amino acids, purple for polar uncharged amino acids, and green for anionic amino acids. To be concise, only the summarized information will be discussed, all original data for the peptides are summarized in the (Figure S26 - […]
Figure S12 Summarized overview of peptide amphiphile library in which systematic variations the original sequence […]
chemistry and (III) the peptide sequence on infectivity enhancement and degradability (see SI chapter 7.1 – 7.3).
In the following section a compound is considered infectivity enhancing if n-fold infectivity at 1.3 µM is larger than 2. A compound is considered to form µm-sized aggregates if visible particles were observed in widefield microscopy (brightfield or ThT-staining filter, objective 10x) or confocal […]
than 1000 kcps in Zeta-Potential measurements.
For the degradability only the PAs which could be stained with Proteostat (Figure S26) and were visible in microscopy (Figure S15, Figure S18, Figure S21, and Figure S22) were studied in detail. To determine […]
whether a PA is degraded or not, Proteostat stained PAs which are added to Hela cells (2 µg peptide added to 20.000 cells) and studied via confocal laser scanning microscopy. […]
In the following, we will distinguish between three aggregation types for fibrillar structures: Fibrils which were not aggregating (below resolution limit of the microscope, approx. 650 nm), moderately aggregating (< 50 µm2) and aggregating to large particles (> 50 µm 2).
7.1 Effects of hydrophobic moiety exchange on properties and activity
To investigate the effects of varying hydrophobic moieties on assembly, aggregation and activity , we

HeLa cells = test: Cell-PA interaction by confocal laser scanning microscopy; format: cell-based; details: peptide 20 µg mL-1 added for 30 min, washed, Proteostat stain
Experimental: Confocal laser scanning microscopy and degradation study with PA1‐3 and HeLa cells: HeLa cells were seeded one day prior to conducting the assay (40000/well) in an 8‐well IBIDI slide. 4 µL of the preformed peptide fibrils (1 mg mL^−1) were diluted with 4 µL Proteostat (Enzo Life Science, 1 µL stock in 999 µL PBS) and incubated for 10 min and further diluted with medium to receive a final peptide concentration of 20 µg mL^−1. The nucleus of the HeLa cells was stained with Hoechst 33 342 (NucBlue, Thermo Fisher Scientific). The peptide solution was transferred to the HeLa cells and incubated for 30 min at 37°C before washing three times with PBS. The interaction of fibril clusters with cells was monitored after 30 min incubation time on a Stellaris 8 confocal laser scanning microscope (Leica) equipped with a 20x air objective and laser excitation wavelengths of 405 nm (Hoechst) and 561 nm (Proteostat). For the evaluation of aggregate degradation, the samples were further incubated at 37°C for 3 d and analyzed without any additional washing step. The evaluation of aggregate size and number was conducted by analyzing Proteostat stained aggregates via the 3D objects counter function of ImageJ 1.53f51 for 3 individual measurements (area 581.25 µm × 581.25 µm). […] The number of aggregates larger than 10 µm^2 were counted via the 3D objects counter function of ImageJ 1.53f51. The mean number and standard deviations were determined by averaging at least three technical triplicates.
Figure S6 Laser scanning microscopy micrographs of A cells only (control), and Proteostat-stained (red) peptides B EF-
C ([…]), C PA1, D PA2, E PA3, F P1, G P2, H P3 added to HeLa cells (nucleus in blue). The peptides (20 µg mL-
1) were added to cells for 30 min, washed and analyzed. […]

[2] = system: HIV-1 infection of TZM-bl cells; test: HIV-1 infection assay (β-galactosidase luminescence reporter); format: cell-based
Experimental: HIV‐1 Infection Assay: The effect of peptide fibrils on HIV‐1 infection was studied via a luminescence assay for β‐galactosidase, which was reported by TZM‐bl cells upon infection. 10000 TZM‐bl cells were seeded in 180 µl supplemented DMEM one day prior infection. The cells were inoculated with 20 µl PNF solution 1:1 (v/v) mixed with virus (1:500 dilution) after an incubation time of 10 min. The HIV‐1 infection assay was conducted in three technical replicates and repeated in three independent experiments unless stated otherwise. The assay was conducted as described before.^[ [20] ^]

[3] = TEM morphology of peptide assemblies; format: physicochemical; details: diluted from DMSO stock (10 mg mL-1) to 1 mg mL-1 in PBS, incubated 1 d at rt
Experimental: as §1
TEM: 5 µL of fibrils (1 mg mL^−1) were placed on 300 mesh, Formvar layered copper grids. After 10 min incubation time, the grids were staining with 4% uranyl acetate solution for 2.5 min. After
three washing steps with dd H2O excess solvent was removed by filter paper. Measurements
were performed on a Jeol 1400 electron microscope with 120 kV acceleration voltage.

[4] = Zeta-potential measurement; format: physicochemical
Experimental: Zeta‐potential: 60 µL of the peptides (1 mg mL^−1) were diluted in 600 µL, 1 mM KCl solution and placed in a disposable folded capillary cuvette. All zeta‐potential measurements (Zetasizer, Malvern Instruments) were conducted in triplicates for each sample.

ThT fluorescence = format: physicochemical; design: key: + = ThT active; − = no ThT fluorescence observed; details: 1 mg mL-1 in PBS; ThT-active if fluorescence at least twice the control (PBS with 10% DMSO)
Experimental: ThT‐fluorescence: 20 µL 50 µM of ThT solution in PBS was pipetted in a black 384 well‐plate and 4 µL of the nanofibril solution 1 mg mL^−1 were added. For reference PBS with 10% DMSO (4 µL) instead of fibril solution was added. Subsequently, fluorescence emission was recorded λem = 488 nm upon excitation at λex = 440 nm with 10 nm bandwidth and multiple reads per well (3 × 3) using a Spark 20 M microplate reader (Tecan Group, Ltd). Data processing was performed with Origin software. A peptide fibril was considered as ThT‐active if the fluorescence intensity was at least twice as strong compared to the control (PBS containing 10% DMSO).

[5] = ATR-FT-IR β-sheet content; format: physicochemical; details: ATR-IR of lyophilized fibril solutions (1 mg mL-1, PBS); peak integration at 1630 cm-1 in 2nd derivative of amide I region
Experimental: ATR‐FT‐IR: ATR‐IR spectra acquisition and the calculation of β−sheet content were conducted according to a previous report.^[ [20] ^] Briefly, FT‐IR spectra of solid samples were recorded after lyophilization of fibril solutions using a Bruker Tensor II spectrometer equipped with a diamond crystal as ATR element with a spectral resolution of 2 cm–1, each spectrum was an average of 64 scans. The data was processed with Origin software. β−sheet amount was determined by calculating the integral of the peak at 1630 cm^−1 (β‐sheet) relative to the integral between 1650–1700 cm^−1 (native structure) from the 2nd derivative of the FT‐IR spectra.

[6] = infectivity enhancing if n-fold at 1.3 µM larger than 2

## CCCCCCCCCCCCCCCC(=O)N[C@@H](C)C(=O)NCC(=O)NCC(=O)N[C@@H](CCCNC(=N)N)C(=O)N[C@H](C(=O)N[C@@H](CCCCN)C(N)=O)C(C)C [C16-AGGRVK-NH2] (Palmitoyl-AGGRVK-NH2)
[1]
  formation of µm-sized aggregates (in words): not forming µm-sized aggregates and forming too few/less aggregates, respectively; also recorded: no aggregation
HeLa cells
  association with cellular membranes: did not associate with cells

## CC/C=C\C/C=C\C/C=C\CCCCCCCC(=O)N[C@H](C(=O)N[C@H](C(=O)N[C@H](C(=O)N[C@@H](C)C(=O)N[C@@H](C)C(=O)N[C@@H](C)C(=O)N[C@@H](CCCCN)C(=O)N[C@@H](CCCCN)C(=O)N[C@@H](CCCCN)C(N)=O)C(C)C)C(C)C)C(C)C (X1-VVVAAAKKK-NH2)
[2]; [6]
  infectivity enhancement of HIV-1 (in words): Inactive
[2]; infectivity enhancing if n-fold at 1.3 µM larger than 2, listed as alpha linolenic acid
  infectivity enhancement of HIV-1 (in words): not able to maintain activity
[1]
  formation of µm-sized aggregates (in words): do not aggregate
[3]
  morphology of peptide assemblies / fibril formation (TEM): cannot self‐assemble into fibrils
[3]; listed as alpha linolenic acid
  morphology of peptide assemblies / fibril formation (TEM): neither forming fibrils, nor it is aggregating or active
[4]; 1 mg mL-1 in PBS, diluted in 1 mM KCl
  zeta-potential (in words): neutral zeta-potential

## CCCCCCCCCCCCCCCC(=O)N[C@H](C(=O)N[C@H](C(=O)N[C@H](C(=O)N[C@@H](C)C(=O)N[C@@H](C)C(=O)N[C@@H](C)C(=O)N[C@@H](CCC(=O)O)C(=O)N[C@@H](CCC(=O)O)C(=O)N[C@@H](CCC(=O)O)C(N)=O)C(C)C)C(C)C)C(C)C [PA3] (Palmitoyl-VVVAAAEEE-NH2)
[2]; [6]
  infectivity enhancement of HIV-1 (in words): Inactive
ThT fluorescence
  ThT fluorescence: +
[1]
  formation of µm-sized aggregates (in words): did not bundle or adopt µm‐sized aggregates in PBS
[3]
  morphology of peptide assemblies / fibril formation (TEM): distinct fibrils
[5]
  β-sheet content: 61%
HeLa cells
  association with cellular membranes: does not associate with cells
[4]; fibrils 1 mg mL-1 in PBS, 60 µL diluted in 600 µL 1 mM KCl, triplicates
  Zeta-Potential: −29.8 ± 2.7 mV
